# Data taken from BindingDB's records for doi:10.1021/jm8000949 (China Pharmaceutical University, 2008).
# Target: T1, Glycogen phosphorylase, muscle form (Oryctolagus cuniculus, UniProt P00489)
# T1 sequence (P00489 whole entry): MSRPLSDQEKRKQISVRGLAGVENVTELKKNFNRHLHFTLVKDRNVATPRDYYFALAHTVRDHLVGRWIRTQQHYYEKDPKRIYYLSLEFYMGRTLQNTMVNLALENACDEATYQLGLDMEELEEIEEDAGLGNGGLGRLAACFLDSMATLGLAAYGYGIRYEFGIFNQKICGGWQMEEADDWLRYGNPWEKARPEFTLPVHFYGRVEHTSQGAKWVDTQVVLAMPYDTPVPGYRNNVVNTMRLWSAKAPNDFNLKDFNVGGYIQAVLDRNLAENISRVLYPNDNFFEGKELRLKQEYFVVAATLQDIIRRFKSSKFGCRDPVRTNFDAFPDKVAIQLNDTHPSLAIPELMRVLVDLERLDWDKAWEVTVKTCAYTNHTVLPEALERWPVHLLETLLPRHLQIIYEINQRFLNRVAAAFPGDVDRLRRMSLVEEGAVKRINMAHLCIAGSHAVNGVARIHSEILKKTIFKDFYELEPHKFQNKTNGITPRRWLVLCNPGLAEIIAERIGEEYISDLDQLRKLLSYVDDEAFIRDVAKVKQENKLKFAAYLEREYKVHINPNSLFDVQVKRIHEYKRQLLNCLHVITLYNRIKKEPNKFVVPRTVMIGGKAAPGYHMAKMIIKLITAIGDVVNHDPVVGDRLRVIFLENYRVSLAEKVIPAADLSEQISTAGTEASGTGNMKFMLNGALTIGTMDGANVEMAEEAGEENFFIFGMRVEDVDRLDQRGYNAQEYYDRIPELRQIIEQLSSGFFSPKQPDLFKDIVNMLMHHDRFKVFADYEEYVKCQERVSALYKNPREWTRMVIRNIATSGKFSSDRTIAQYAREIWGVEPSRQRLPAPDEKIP
# Assay: Enzyme Inhibition Assay
# Settings: pH 7.2; 22 °C
# Method: The activity of the compounds is determined by measuring the inhibitory effect of the compounds in the direction of glycogen synthesis, the conversion of glucose-1-phosphate into glycogen with the release of inorganic phosphate, which was monitored using microplate reader (BIO-RAD). […] The IC50 values were estimated by fitting the inhibition data to a dose dependent curve using a logistic derivative equation.
row,Compound,IC50
1,"CC1(C)C2CC[C@]3(C)[C@H](CC=C4[C@@H]5C[C@@](C)(C(=O)O)CC[C@]5(C)CC[C@]43C)[C@@]2(C)CC[C@@H]1O (stereo partly drawn) [(2S,4aS,6aS,6bR,10S,12aR,12bR,14bR)-10-hydroxy-2,4a,6a,6b,9,9,12a-heptamethyl-1,2,3,4,4a,5,6,6a,6b,7,8,8a,9,10,11,12,12a,12b,13,14b-icosahydropicene-2-carboxylic acid]",82 µM
2,"CC1(C)CC[C@]2(C(=O)O[C@@H]3O[C@H](CO)[C@@H](O)[C@H](O)[C@H]3O)CC[C@]3(C)C(=CC[C@@H]4[C@@]5(C)CC[C@H](O)C(C)(C)C5CC[C@]43C)[C@@H]2C1 (stereo partly drawn) [(2S,3R,4S,5S,6R)-3,4,5-trihydroxy-6-(hydroxymethyl)oxan-2-yl (4aS,6aS,6bR,10S,12aR,12bR,14bS)-10-hydroxy-2,2,6a,6b,9,9,12a-heptamethyl-1,2,3,4,4a,5,6,6a,6b,7,8,8a,9,10,11,12,12a,12b,13,14b-icosahydropicene-4a-carboxylate]",293 µM
3,"CC1(C)C2CC[C@]3(C)[C@H](C(=O)C=C4[C@@H]5C[C@@](C)(C(=O)O)CC[C@]5(C)CC[C@]43C)[C@@]2(C)CC[C@@H]1O (stereo partly drawn) [(2S,4aS,6aS,6bR,10S,12aS,12bR,14bR)-10-hydroxy-2,4a,6a,6b,9,9,12a-heptamethyl-13-oxo-1,2,3,4,4a,5,6,6a,6b,7,8,8a,9,10,11,12,12a,12b,13,14b-icosahydropicene-2-carboxylic acid]",66 µM
4,"C[C@H]1[C@H](C)CC[C@]2(C(=O)O)CC[C@]3(C)C(=CC[C@@H]4[C@@]5(C)CC[C@@H](O)C(C)(C)C5CC[C@]43C)[C@H]12 (stereo partly drawn) [(1S,2R,4aS,6aS,6bR,10R,12aR,12bR,14bS)-10-hydroxy-1,2,6a,6b,9,9,12a-heptamethyl-1,2,3,4,4a,5,6,6a,6b,7,8,8a,9,10,11,12,12a,12b,13,14b-icosahydropicene-4a-carboxylic acid]",19 µM
5,CC1(C)C2CC[C@]3(C)[C@H](C(=O)C=C4[C@@H]5C[C@@](C)(C(=O)O)CC[C@]5(C)CC[C@]43C)[C@@]2(C)CC[C@@H]1O[C@H]1O[C@H](C(=O)O)[C@@H](O)[C@H](O)[C@H]1O[C@@H]1O[C@H](C(=O)O)[C@@H](O)[C@H](O)[C@H]1O (stereo not given in full) [pentacyclic triterpene compound 7],822 µM
6,C[C@H]1[C@H](C)CC[C@]2(C(=O)O[C@@H]3O[C@H](CO)[C@@H](O)[C@H](O)[C@H]3O)CC[C@]3(C)C(=CC[C@@H]4[C@@]5(C)CC[C@H](O)C(C)(C)C5CC[C@]43C)[C@H]12 (stereo not given in full) [pentacyclic triterpene compound 19],97 µM
7,CC1(C)CC[C@]2(C(=O)O)CC[C@]3(C)C(=CC[C@@H]4[C@@]5(C)CCC(=O)C(C)(C)C5CC[C@]43C)[C@@H]2C1 (stereo not given in full) [pentacyclic triterpene compound 6],18 µM
8,"C[C@H]1[C@H](C)CC[C@]2(C(=O)O)CC[C@]3(C)C(=CC[C@@H]4[C@@]5(C)CCC(=O)C(C)(C)C5CC[C@]43C)[C@H]12 (stereo partly drawn) [(1S,2R,4aS,6aS,6bR,12aR,12bR,14bS)-1,2,6a,6b,9,9,12a-heptamethyl-10-oxo-1,2,3,4,4a,5,6,6a,6b,7,8,8a,9,10,11,12,12a,12b,13,14b-icosahydropicene-4a-carboxylic acid]",57 µM
9,"C[C@H]1[C@H](C)CC[C@]2(C(=O)O[C@@H]3O[C@H](CO)[C@@H](O)[C@H](O)[C@H]3O)CC[C@]3(C)C(=CC[C@@H]4[C@@]5(C)C[C@@H](O)[C@H](O)C(C)(C)C5CC[C@]43C)[C@H]12 (stereo partly drawn) [(2S,3R,4S,5S,6R)-3,4,5-trihydroxy-6-(hydroxymethyl)oxan-2-yl (1S,2R,4aS,6aS,6bR,10R,11R,12aR,12bR,14bS)-10,11-dihydroxy-1,2,6a,6b,9,9,12a-heptamethyl-1,2,3,4,4a,5,6,6a,6b,7,8,8a,9,10,11,12,12a,12b,13,14b-icosahydropicene-4a-carboxylate]",106 µM
10,"C[C@H]1[C@H](C)CC[C@]2(C(=O)O)CC[C@]3(C)C(=CC[C@@H]4[C@@]5(C)CC[C@H](O)C(C)(C)C5CC[C@]43C)[C@H]12 (stereo partly drawn) [(1S,2R,4aS,6aS,6bR,10S,12aR,12bR,14bS)-10-hydroxy-1,2,6a,6b,9,9,12a-heptamethyl-1,2,3,4,4a,5,6,6a,6b,7,8,8a,9,10,11,12,12a,12b,13,14b-icosahydropicene-4a-carboxylic acid]",9 µM
